Columns and labels:
Assay type in all cases: cell-based, Saccharomyces cerevisiae
AH22 strain = test: Antifungal compound sensitivity test, control yeast AH22 strain (Example 3); settings: 30° C. 48 hours, absorbance at 600 nm relative to 0 ppm = 100
Protocol: The transformed budding yeast AH22-BcOS1 prepared in Example 2 was cultured while shaking at 30° C. for 18 hours in a Glu-Leu medium. As a control, the AH22 strain was similarly cultured while shaking at 30° C. for 18 hours in a Glu medium. The absorbance at 600 nm of each of the grown transformed budding yeasts in a cell suspension was measured, and a cell suspension diluted with sterilized distilled water to the absorbance of 0.1 was prepared. Further, a cell suspension in which the aforementioned cell suspension of the transformed budding yeast AH22-BcOS1 was diluted 200-fold with a Glu-Leu medium, and a cell suspension in which the aforementioned cell suspension of the AH22 strain was diluted 200-fold with a Glu medium were prepared. A solution in which each of Compounds (1) to (3) was dissolved in dimethylsulfoxide (DMSO) to the concentration of 60 ppm, a solution in which each of Compounds (4) and (5) was dissolved in dimethylsulfoxide (DMSO) to the concentration of 2000 ppm, and a solution in which each of Compounds (6) and (7) was dissolved in dimethylsulfoxide (DMSO) to the concentration of 20 ppm were prepared, and two microplates were prepared in which each 2.0 μL per well of the Compound solution and DMSO as a control were dispensed into two wells. In one microplate among them, each 200 μL of cell suspensions of the transformed budding yeast AH22-BcOS1 which had been prepared by dilution as described above was dispensed, and cultured by allowing to stand at 30° C. for 48 hours. In another microplate, each 200 μL of the cell suspensions of the control yeast AH22 strain which had been prepared by dilution as described above was dispensed, and cultured by allowing to stand at 30° C. for 48 hours. After culturing, the absorbance at 600 nm of each well was measured with a microplate reader.
Degree of growths of both of the transformed budding yeasts cultured under the presence of each of Compound (1) to (7) and budding yeast as a control therefor are shown in Table 1. Degree of growths of both of the transformed budding yeasts and budding yeasts as a control therefor are expressed by a relative value in percentage, letting the absorbance at 600 nm in a well having the concentration of the aforementioned Compound of 0 ppm to be 100. It was confirmed that an inhibiting degree of growth of TM182-BcOS1 by each test substance was grater than an inhibiting degree of growth of AH22-BcOS1 by each test substance, and the TM182-BcOS1 was a transformed cell with the enhanced sensitivity to an antifungal compound as compared with AH22-BcOS1.

[1] = test system: transformed budding yeast AH22-BcOS1-I365S; test: Antifungal compound sensitivity test, transformed budding yeast AH22-BcOS1-I365S (Example 6); settings: absorbance at 600 nm relative to 0 ppm = 100
From the text: Degrees of growths of both of the transformed budding yeasts cultured under the presence of Compounds (1) to (7) and budding yeast as a control therefor are shown in Table 2. Degrees of growths of both of the transformed budding yeasts and budding yeast as a control are expressed by a relative value in percentage, letting the absorbance at 600 nm at the concentration of the Compound of 0 ppm to be 100. It was confirmed that an inhibiting degree of growth of the transformed budding yeast TM182-BcOS1-I 365S by each test substance was grater than an inhibiting degree of growth of the transformed budding yeast AH22-BcOS1-I 365S by each test substance, and the transformed budding yeast TM182-BcOS1-I365S was a transformed cell with the enhanced sensitivity to an antifungal compound as compared with the transformed budding yeast AH22-BcOS1-I365S.

[2] = test system: transformed budding yeast AH22-StOS1; test: Antifungal compound sensitivity test, transformed budding yeast AH22-StOS1 (Example 16); settings: 30° C. 28 hours, relative value in percentage
Protocol: The transformed budding yeast AH22-StOS1 prepared in Example 15 was cultured while shaking at 30° C. for 18 hours in a Glu-Leu medium. As a control, the AH22 strain was similarly cultured while shaking at 30° C. for 18 hours in a Glu medium. The absorbance at 600 nm of each grown transformed budding yeast in a cell suspension was measured, and cell suspension diluted with sterilized distilled water to the absorbance of 0.1 was prepared. Further, a cell suspension in which the aforementioned cell suspension of the transformed budding yeast AH22-StOS1 was diluted 50-fold with a Glu-Leu medium, and a cell suspension in which the aforementioned cell suspension of the AH22 strain was diluted 50-fold with a Glu medium were prepared.
A solution in which each of Compounds (1) to (3) was dissolved in dimethylsulfoxide (DMSO) to the concentration of 6 ppm, a solution in which each of Compounds (4) and (5) was dissolved in dimethylsulfoxide (DMSO) to the concentration of 2000 ppm, and a solution in which Compounds (6) and (7) was dissolved in dimethylsulfoxide (DMSO) to the concentration of 20 ppm were prepared, and two microplates were prepared in which each 1.0 μL per well of the Compound solution and DMSO as a control were dispensed. In one microplate among them, each 100 μL of cell suspensions of the transformed budding yeast AH22-StOS1 which had been prepared by dilution as described above was dispensed, and cultured by allowing to stand at 30° C. for 28 hours. In another microplate, each 100 μL of cell suspensions of the control yeast AH22 strain which had been prepared by dilution as described above was dispensed, and cultured by allowing to stand at 30° C. for 24.5 hours. After culturing, the absorbance at 600 nm of each well was measured with a microplate reader.
A degree of growth of the transformed budding yeast is expressed as a relative value in percentage, letting the absorbance at 600 nm at the concentration of the Compound of 0 ppm to be 100. It was confirmed that an inhibiting degree of growth of the transformed budding yeast TM182-StOS1 by each test substance was grater than an inhibiting degree of growth of the transformed budding yeast AH22-StOS1 by each test substance, and the transformed budding yeast TM182-StOS1 was a transformed cell with the enhanced sensitivity to an antifungal compound as compared with the transformed budding yeast AH22-StOS1.

## CC(C)NC(=O)N1CC(=O)N(c2cc(Cl)cc(Cl)c2)C1=O [Compound (2), Iprodione]
AH22 strain; final concentration 0.6 ppm
  Degree of growth of budding yeast (%) AH22 Glu medium: 99%
[1]; final concentration 6 ppm
  Degree of growth of budding yeast (%) AH22-BcOS1-I365S Glu-Leu medium: 81%
[2]; final concentration 0.6 ppm
  Degree of growth of budding yeast AH22-StOS1 Glu-Leu medium: 100%

## N#Cc1c[nH]cc1-c1cccc2c1OC(F)(F)O2 [Compound (6), Fludioxonil]
AH22 strain; final concentration 0.2 ppm
  Degree of growth of budding yeast (%) AH22 Glu medium: 99%
[1]; final concentration 0.2 ppm
  Degree of growth of budding yeast (%) AH22-BcOS1-I365S Glu-Leu medium: 67%
[2]; final concentration 0.2 ppm
  Degree of growth of budding yeast AH22-StOS1 Glu-Leu medium: 93%

## COP(=S)(OC)Oc1c(Cl)cc(C)cc1Cl [Compound (5), Tolclofos-methyl]
AH22 strain; final concentration 20 ppm
  Degree of growth of budding yeast (%) AH22 Glu medium: 97%
[1]; final concentration 20 ppm
  Degree of growth of budding yeast (%) AH22-BcOS1-I365S Glu-Leu medium: 64%
[2]; final concentration 20 ppm
  Degree of growth of budding yeast AH22-StOS1 Glu-Leu medium: 76%

## O=[N+]([O-])c1c(Cl)c(Cl)c(Cl)c(Cl)c1Cl [Compound (4), Quintozene]
AH22 strain; final concentration 20 ppm
  Degree of growth of budding yeast (%) AH22 Glu medium: 96%
[1]; final concentration 20 ppm
  Degree of growth of budding yeast (%) AH22-BcOS1-I365S Glu-Leu medium: 83%
[2]; final concentration 20 ppm
  Degree of growth of budding yeast AH22-StOS1 Glu-Leu medium: 91%

## C=CC1(C)OC(=O)N(c2cc(Cl)cc(Cl)c2)C1=O (stereo not drawn) [Compound (3), Vinclozolin]
AH22 strain; final concentration 0.6 ppm
  Degree of growth of budding yeast (%) AH22 Glu medium: 98%
[1]; final concentration 6 ppm
  Degree of growth of budding yeast (%) AH22-BcOS1-I365S Glu-Leu medium: 75%
[2]; final concentration 0.6 ppm
  Degree of growth of budding yeast AH22-StOS1 Glu-Leu medium: 98%

## CC12CC1(C)C(=O)N(c1cc(Cl)cc(Cl)c1)C2=O (stereo not drawn) [Compound (1), Procymidone]
AH22 strain; final concentration 0.6 ppm
  Degree of growth of budding yeast (%) AH22 Glu medium: 99%
[1]; final concentration 6 ppm
  Degree of growth of budding yeast (%) AH22-BcOS1-I365S Glu-Leu medium: 68%
[2]; final concentration 0.6 ppm
  Degree of growth of budding yeast AH22-StOS1 Glu-Leu medium: 101%

## N#Cc1c[nH]cc1-c1cccc(Cl)c1Cl [Compound (7), Fenpiclonil]
AH22 strain; final concentration 0.2 ppm
  Degree of growth of budding yeast (%) AH22 Glu medium: 101%
[1]; final concentration 0.2 ppm
  Degree of growth of budding yeast (%) AH22-BcOS1-I365S Glu-Leu medium: 79%
[2]; final concentration 0.2 ppm
  Degree of growth of budding yeast AH22-StOS1 Glu-Leu medium: 91%
